Patent publication US20240116985A1, “STAPLED PEPTIDES AND METHODS THEREOF” (priority 2020, published 2024)

Target: T1, full-length beta-Catenin (Uniprot ID P35222) (Homo sapiens, UniProt P35222)
T1 construct: 10 nM full-length beta-Catenin (Uniprot ID P35222)
T1 sequence (P35222 1-781): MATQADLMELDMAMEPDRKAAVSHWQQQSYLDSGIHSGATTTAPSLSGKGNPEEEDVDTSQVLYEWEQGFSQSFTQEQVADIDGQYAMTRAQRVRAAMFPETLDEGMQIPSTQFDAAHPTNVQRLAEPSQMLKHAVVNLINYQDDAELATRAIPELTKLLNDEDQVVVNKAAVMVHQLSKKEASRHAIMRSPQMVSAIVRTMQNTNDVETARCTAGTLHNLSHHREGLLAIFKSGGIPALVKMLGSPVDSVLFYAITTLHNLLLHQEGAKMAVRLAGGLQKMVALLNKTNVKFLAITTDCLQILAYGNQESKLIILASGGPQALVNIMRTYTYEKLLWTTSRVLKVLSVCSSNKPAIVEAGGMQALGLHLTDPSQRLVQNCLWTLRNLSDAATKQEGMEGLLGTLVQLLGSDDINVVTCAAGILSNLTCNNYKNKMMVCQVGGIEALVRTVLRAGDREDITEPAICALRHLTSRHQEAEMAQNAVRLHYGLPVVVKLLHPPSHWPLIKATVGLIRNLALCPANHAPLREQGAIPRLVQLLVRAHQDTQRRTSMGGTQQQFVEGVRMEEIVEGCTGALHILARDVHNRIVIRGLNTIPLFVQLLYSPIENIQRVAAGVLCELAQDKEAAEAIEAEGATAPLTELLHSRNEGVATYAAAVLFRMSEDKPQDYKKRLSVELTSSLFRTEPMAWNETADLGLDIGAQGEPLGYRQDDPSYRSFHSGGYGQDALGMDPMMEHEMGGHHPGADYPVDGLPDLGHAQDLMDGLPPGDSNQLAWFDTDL
Test: Fluorescence polarization IC50 (beta-catenin / 5FAM-TCF4 10-53 competition)
Type: binding
Conditions: fluorescence polarization; read-out: beta-Catenin FP IC50

SMILES	IC50 [µM]
CC(=O)N1CCC[C@]12CC=CCCCC1(CCCC=CCCCOC(=O)N3CC[C@@](C(=O)N[C@@H](Cc4ccccc4)C(=O)N[C@@H](Cc4csc5ccccc45)C(=O)N[C@@H](CC(=O)N4CCOCC4)C(N)=O)(C3)NC(=O)[C@H](CC(C)C)NC(=O)[C@H](Cc3ccccc3)NC(=O)[C@H](C)NC(=O)[C@H](CCCCNS(C)(=O)=O)NC(=O)[C@H](CCC(N)=O)NC(=O)[C@H](CC(=O)O)NC1=O)NC(=O)[C@H](CC1CCCCC1)NC(=O)[C@H](CC(N)=O)NC2=O (stereo partly drawn) [I-2524, Ac-PL3-Asn-Cha-B5-Asp-Gln-[MeSO2]Lys-Ala-Phe-Leu-PyrS2-Phe-BztA-MorphAsn-NH2]	0.609
CC(=O)N1CCC[C@]12CC=CCCCC1(CCCC=CCCCOC(=O)N3CC[C@@](C(=O)N[C@@H](Cc4ccccc4)C(=O)N[C@@H](Cc4csc5ccccc45)C(=O)N[C@@H](CC(=O)N4CCOCC4)C(N)=O)(C3)NC(=O)[C@H](CC(C)C)NC(=O)[C@H](Cc3ccccc3)NC(=O)[C@H](C)NC(=O)[C@H](CCCCNC(=O)C(F)(F)F)NC(=O)[C@H](CCC(N)=O)NC(=O)[C@H](CC(=O)O)NC1=O)NC(=O)[C@H](CC1CCCCC1)NC(=O)[C@H](CC(N)=O)NC2=O (stereo partly drawn) [I-2525, Ac-PL3-Asn-Cha-B5-Asp-Gln-[CF3CO]Lys-Ala-Phe-Leu-PyrS2-Phe-BztA-MorphAsn-NH2]	4.29
CC(=O)N1CCC[C@]12CC=CCCCC1(CCCC=CCCCOC(=O)N3CC[C@@](C(=O)N[C@@H](Cc4ccccc4)C(=O)N[C@@H](Cc4csc5ccccc45)C(=O)N[C@@H](CC(=O)N4CCOCC4)C(N)=O)(C3)NC(=O)[C@H](CC(C)C)NC(=O)[C@H](Cc3ccccc3)NC(=O)[C@H](C)NC(=O)[C@H](CCCCNC(=O)CCN(C)C)NC(=O)[C@H](CCC(N)=O)NC(=O)[C@H](CC(=O)O)NC1=O)NC(=O)[C@H](CC1CCCCC1)NC(=O)[C@H](CC(N)=O)NC2=O (stereo partly drawn) [I-2528, Ac-PL3-Asn-Cha-B5-Asp-Gln-[Me2Npr]Lys-Ala-Phe-Leu-PyrS2-Phe-BztA-MorphAsn-NH2]	0.61
CC(C)C[C@@H]1NC(=O)[C@H](Cc2ccccc2)NC(=O)[C@H](C)NC(=O)[C@H](C)NC(=O)[C@H](Cc2cccc(C(=O)O)c2)NC(=O)[C@H](CC(=O)O)NC(=O)C2(CCCCCCCCOC(=O)N3CC[C@@](C(=O)N[C@@H](Cc4ccccc4C(F)(F)F)C(=O)N[C@@H](Cc4csc5ccccc45)C(=O)N[C@@H](CCC(N)=O)C(N)=O)(C3)NC1=O)CCCCCC[C@@]13CCCN1C(=O)CCCCCC[C@H](NC(=O)[C@H](CC(=O)O)NC3=O)C(=O)N2 (stereo partly drawn) [I-2529, 5hexenyl-PL3-Asp-AllylGly-B5-Asp-3COOHF-Ala-Ala-Phe-Leu-PyrS2-2F3MeF-BztA-Gln-NH2]	0.153
CC(C)C[C@@H]1NC(=O)[C@H](Cc2ccccc2)NC(=O)[C@H](C)NC(=O)[C@H](C)NC(=O)[C@H](Cc2cccc(C(=O)O)c2)NC(=O)[C@H](CC(=O)O)NC(=O)C2(CCCCCCCCOC(=O)N3CC[C@@](C(=O)N[C@@H](Cc4ccccc4C(F)(F)F)C(=O)N[C@@H](Cc4csc5ccccc45)C(=O)N[C@@H](CCC(N)=O)C(N)=O)(C3)NC1=O)CCCCCC[C@@]13CCCN1C(=O)CCCCC[C@H](NC(=O)[C@H](CC(=O)O)NC3=O)C(=O)N2 (stereo partly drawn) [I-2530, 4pentenyl-PL3-Asp-AllylGly-B5-Asp-3COOHF-Ala-Ala-Phe-Leu-PyrS2-2F3MeF-BztA-Gln-NH2]	0.102
CCCC[C@@H]1NC(=O)[C@H](CC(=O)O)NC(=O)[C@]2(CCCCCCC3(CCCCCCCCOC(=O)N4CC[C@@](C(=O)N[C@@H](Cc5ccccc5C(F)(F)F)C(=O)N[C@@H](Cc5csc6ccccc56)C(=O)N[C@@H](CCC(N)=O)C(N)=O)(C4)NC(=O)[C@H](CC(C)C)NC(=O)[C@H](Cc4ccccc4)NC(=O)[C@H](C)NC(=O)[C@H](C)NC(=O)[C@H](Cc4cccc(C(=O)O)c4)NC(=O)[C@H](CC(=O)O)NC3=O)NC1=O)CCCN2C(C)=O (stereo partly drawn) [I-2531, Ac-PL3-Asp-nLeu-B5-Asp-3COOHF-Ala-Ala-Phe-Leu-PyrS2-2F3MeF-BztA-Gln-NH2]	0.179
CC(=O)N1Cc2cccc(c2)OCC=CCCCC2(CCCC=CCCCOC(=O)N3CC[C@@](C(=O)N[C@@H](Cc4ccsc4)C(=O)N[C@@H](Cc4csc5ccccc45)C(=O)N[C@@H](CCC(N)=O)C(N)=O)(C3)NC(=O)[C@H](CC(C)C)NC(=O)[C@H](Cc3ccccc3)NC(=O)[C@H](C)NC(=O)[C@H](C)NC(=O)[C@H](CN(CC(=O)O)CC(F)(F)F)NC(=O)[C@H](CC(=O)O)NC2=O)NC(=O)[C@H](CC(C)(C)C)NC(=O)[C@@H]1CC(=O)O (stereo partly drawn) [I-2550, Bn3OAllyl-AcAsp-Npg-B5-Asp-TfeGA-Ala-Ala-Phe-Leu-PyrS2-3Thi-BztA-Gln-NH2]	1.72
CCCC[C@@H]1NC(=O)[C@H](Cc2ccccc2)NC(=O)[C@H](C)NC(=O)C(C)(C)NC(=O)[C@H](Cc2cccc(C(=O)O)c2)NC(=O)[C@H](CC(=O)O)NC(=O)C2(CCCC=CCCCOC(=O)N3CC[C@@](C(=O)N[C@@H](Cc4ccsc4)C(=O)N[C@@H](Cc4csc5ccccc45)C(=O)N[C@@H](CCC(=O)N4CCC(N5CCCCC5)CC4)C(N)=O)(C3)NC1=O)CCCC=CC[C@]1(CCCN1C(C)=O)C(=O)N[C@@H](CC(=O)O)C(=O)N[C@@H](CC(C)(C)C)C(=O)N2 (stereo partly drawn) [I-2555, Ac-PL3-Asp-Npg-B5-Asp-3COOHF-Aib-Ala-Phe-nLeu-PyrS2-3Thi-BztA-[4Pippip]GlnR-NH2]	0.011

The next lines start with the values.

IC50 [µM]	SMILES
0.259	CC(=O)N[C@]1(C)CCCC=CCCCC2(CCCC=CCCCOC(=O)N3CC[C@@](C(=O)N[C@@H](Cc4ccccc4C(F)(F)F)C(=O)N[C@@H](Cc4csc5ccccc45)C(=O)N[C@@H](CCC(N)=O)C(N)=O)(C3)NC(=O)[C@H](CC(C)C)NC(=O)[C@H](Cc3ccccc3)NC(=O)[C@H](C)NC(=O)[C@H](C)NC(=O)[C@H](Cc3cccc(C(=O)O)c3)NC(=O)[C@H](CC(=O)O)NC2=O)NC(=O)[C@H](CC(C)(C)C)NC(=O)[C@H](CC(=O)O)NC1=O (stereo partly drawn) [I-2564, Ac-R5-Asp-Npg-B5-Asp-3COOHF-Ala-Ala-Phe-Leu-PyrS2-2F3MeF-BztA-Gln-NH2]
0.181	CC(=O)N1CCC[C@H]1C(=O)N[C@]1(C)CC=CCCCC2(CCCC=CCCCOC(=O)N3CC[C@@](C(=O)N[C@@H](Cc4ccccc4C(F)(F)F)C(=O)N[C@@H](Cc4csc5ccccc45)C(=O)N[C@@H](CCC(N)=O)C(N)=O)(C3)NC(=O)[C@H](CC(C)C)NC(=O)[C@H](Cc3ccccc3)NC(=O)[C@H](C)NC(=O)[C@H](C)NC(=O)[C@H](Cc3cccc(C(=O)O)c3)NC(=O)[C@H](CC(=O)O)NC2=O)NC(=O)[C@H](CC(C)(C)C)NC(=O)[C@H](CC(=O)O)NC1=O (stereo partly drawn) [I-2566, Ac-Pro-R3-Asp-Npg-B5-Asp-3COOHF-Ala-Ala-Phe-Leu-PyrS2-2F3MeF-BztA-Gln-NH2]
0.522	CC(=O)N1CCC[C@H]1C(=O)N[C@]1(C)CCCC=CCCCC2(CCCC=CCCCOC(=O)N3CC[C@@](C(=O)N[C@@H](Cc4ccccc4C(F)(F)F)C(=O)N[C@@H](Cc4csc5ccccc45)C(=O)N[C@@H](CCC(N)=O)C(N)=O)(C3)NC(=O)[C@H](CC(C)C)NC(=O)[C@H](Cc3ccccc3)NC(=O)[C@H](C)NC(=O)[C@H](C)NC(=O)[C@H](Cc3cccc(C(=O)O)c3)NC(=O)[C@H](CC(=O)O)NC2=O)NC(=O)[C@H](CC(C)(C)C)NC(=O)[C@H](CC(=O)O)NC1=O (stereo partly drawn) [I-2567, Ac-Pro-R5-Asp-Npg-B5-Asp-3COOHF-Ala-Ala-Phe-Leu-PyrS2-2F3MeF-BztA-Gln-NH2]
4.77	CC(=O)N[C@]12CCN(C1)C(=O)OCC=CCCCC1(CCCC=CCCCOC(=O)N3CC[C@@](C(=O)N[C@@H](Cc4ccccc4C(F)(F)F)C(=O)N[C@@H](Cc4csc5ccccc45)C(=O)N[C@@H](CCC(N)=O)C(N)=O)(C3)NC(=O)[C@H](CC(C)C)NC(=O)[C@H](Cc3ccccc3)NC(=O)[C@H](C)NC(=O)[C@H](C)NC(=O)[C@H](Cc3cccc(C(=O)O)c3)NC(=O)[C@H](CC(=O)O)NC1=O)NC(=O)[C@H](CC(C)(C)C)NC(=O)[C@H](CC(=O)O)NC(=O)[C@H](C)NC2=O (stereo partly drawn) [I-2568, Ac-PyrR-Ala-Asp-Npg-B5-Asp-3COOHF-Ala-Ala-Phe-Leu-PyrS2-2F3MeF-BztA-Gln-NH2]
1.95	CC(=O)N[C@]12CCN(C1)C(=O)OCC=CCCCC1(CCCC=CCCCOC(=O)N3CC[C@@](C(=O)N[C@@H](Cc4ccccc4C(F)(F)F)C(=O)N[C@@H](Cc4csc5ccccc45)C(=O)N[C@@H](CCC(N)=O)C(N)=O)(C3)NC(=O)[C@H](CC(C)C)NC(=O)[C@H](Cc3ccccc3)NC(=O)[C@H](C)NC(=O)[C@H](C)NC(=O)[C@H](Cc3cccc(C(=O)O)c3)NC(=O)[C@H](CC(=O)O)NC1=O)NC(=O)[C@H](CC(C)(C)C)NC(=O)[C@H](CC(=O)O)NC(=O)[C@H](CCC(=O)O)NC2=O (stereo partly drawn) [I-2569, Ac-PyrR-Glu-Asp-Npg-B5-Asp-3COOHF-Ala-Ala-Phe-Leu-PyrS2-2F3MeF-BztA-Gln-NH2]
1.28	CC(=O)N[C@]1(C)CCCCCCC2(CCCCCCCCOC(=O)N3CC[C@@](C(=O)N[C@@H](Cc4ccccc4C(F)(F)F)C(=O)N[C@@H](Cc4csc5ccccc45)C(=O)N[C@@H](CCC(N)=O)C(N)=O)(C3)NC(=O)[C@H](CC(C)C)NC(=O)[C@H](Cc3ccccc3)NC(=O)[C@H](C)NC(=O)[C@H](C)NC(=O)[C@H](Cc3cccc(C(=O)O)c3)NC(=O)[C@H](CC(=O)O)NC2=O)NC(=O)[C@H](CC(C)(C)C)NC(=O)[C@H](CC(=O)O)NC1=O (stereo partly drawn) [I-2570, Ac-R3-Asp-Npg-B5-Asp-3COOHF-Ala-Ala-Phe-Leu-PyrS2-2F3MeF-BztA-Gln-NH2]
